Data taken from US20020137929A1, “1 - (3-heterocyclylphenyl) isothiourea, -isourea, -guanidine and -amidine herbicidal agents” (Intellectual Property Department, BASF Aktiengesellschaft, priority 1998, published 2002).

What was measured:
[1] = test system: ABUTH (Velvetleaf); assay: Postemergence herbicidal evaluation; format: in vivo, Abutilon theophrasti; details: postemergence
Procedure, shortened: (§1)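 Rate range approx. 0.0156–0.500 kg/ha. Foliar application at 40 psi to ~2-week seedlings; surfactant 0.5% TWEEN 20 in 50/50 acetone/water. Evaluation 4–5 wk post-treatment by 0–9 visual injury score, means of replicate tests.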

[2] = test system: GALAP (Galium); assay: Postemergence herbicidal evaluation; format: in vivo, Galium aparine; details: postemergence
Procedure, shortened: as §1

[3] = test system: ECHCG (Barnyardgrass); assay: Postemergence herbicidal evaluation; format: in vivo, Echinochloa crus-galli; details: postemergence
Procedure, shortened: as §1

[4] = test system: SETVI (Foxtail, Green); assay: Postemergence herbicidal evaluation; format: in vivo, Setaria viridis; details: postemergence
Procedure, shortened: as §1

[5] = test system: ORYSAT (Rice, Tebonnet); assay: Postemergence herbicidal evaluation; format: in vivo, Oryza sativa, (L.) Tebonnet; details: postemergence
Procedure, shortened: as §1

[6] = test system: IPOHE (Morningglory, Ivyleaf); assay: Preemergence herbicidal evaluation; format: in vivo, Ipomoea hederacea; details: rated 4-5 weeks after treatment
Procedure, shortened: (§2)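 Sown cups got a single aqueous acetone spray of test compound (roughly 0.0156–0.500 kg/ha) before seedlings emerged. Evaluation, 4–5 weeks on, used a 0–9 visual scale covering plant stand, vigor, size, malformation, chlorosis and general appearance compared with controls.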

[7] = test system: TRZAWR (Wheat, Winter, cv Riband); assay: Preemergence herbicidal evaluation; format: in vivo, Triticum aestivum; details: rated 4-5 weeks after treatment
Procedure, shortened: as §2

[8] = test system: ZEAMX (Corn, Field); assay: Preemergence herbicidal evaluation; format: in vivo, Zea mays; details: rated 4-5 weeks after treatment
Procedure, shortened: as §2

[9] = test system: ECHORC (Watergrass (Calif.)); assay: Preemergence weed control under flooded paddy conditions; format: in vivo, Echinochloa oryzoides; details: rated 3-4 weeks after treatment
Procedure, shortened: (§3)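 Ratings on a 0-9 visual scale cover stand, vigor, malformation, size, chlorosis and overall appearance relative to a control, taken three to four weeks post-treatment. Application was into flood water over freshly sown silt loam at roughly 0.0313 to 0.500 kg/ha.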

[10] = test system: CYPIR (Rice Flatsedge); assay: as above; format: in vivo, Cyperus iria; details: rated 3-4 weeks after treatment
Procedure, shortened: as §3

[11] = test system: MOOVA (Monochoria); assay: as above; format: in vivo, Monochoria vaginalis; details: rated 3-4 weeks after treatment
Procedure, shortened: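 Flooded-pot preemergence screen with silt loam and seeds in the upper 0.5 cm. Dose about 0.0313 to 0.500 kg/ha, delivered into flood water; visual 0-9 score after 3 to 4 weeks.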

[12] = rate 0.0156 kg/ha, rating scale 0-9
[13] = rate 0.0313 kg/ha, rating scale 0-9
[14] = rate 0.0625 kg/ha, rating scale 0-9
[15] = rate 0.1250 kg/ha, rating scale 0-9
[16] = rate 0.2500 kg/ha, rating scale 0-9

Cn1c(C(F)(F)F)cc(=O)n(-c2cc(N=C3SCC(=O)N3Cc3cccc(C(F)(F)F)c3)c(Cl)cc2F)c1=O [Compound 142, 3-{4-Chloro-2-fluoro-5-{{3-[m-(trifluoromethyl)benzyl]-4-oxo-2-thiazolidinylidene}-amino}phenyl}-1-methyl-6-(trifluoromethyl)-2,4(1H,3H)-pyrimidinedione]
8.0: herbicidal effect rating, MOOVA ([11]; 0.2500 kg/ha)
2.0: herbicidal rating ECHCG ([3]; rate 0.0625 kg/ha) | herbicidal rating SETVI ([4]; rate 0.0156 kg/ha) | herbicidal rating ORYSAT ([5]; rate 0.0156 kg/ha) | herbicidal rating ORYSAT ([5]; rate 0.0625 kg/ha) | Preemergence herbicidal rating IPOHE [6, 16] | Preemergence herbicidal rating ZEAMX [8, 15] | Preemergence herbicidal rating ZEAMX [8, 16] | herbicidal effect rating, CYPIR ([10]; 0.0625 kg/ha)
0.0: herbicidal rating GALAP ([2]; rate 0.0156 kg/ha) | Preemergence herbicidal rating IPOHE [6, 12] | Preemergence herbicidal rating IPOHE [6, 13] | Preemergence herbicidal rating IPOHE [6, 14] | Preemergence herbicidal rating TRZAWR [7, 12] | Preemergence herbicidal rating TRZAWR [7, 13] | Preemergence herbicidal rating TRZAWR [7, 14] | Preemergence herbicidal rating TRZAWR [7, 15] | Preemergence herbicidal rating TRZAWR [7, 16] | Preemergence herbicidal rating ZEAMX [8, 12] | Preemergence herbicidal rating ZEAMX [8, 13] | Preemergence herbicidal rating ZEAMX [8, 14] | herbicidal effect rating, CYPIR ([10]; 0.0313 kg/ha)
5.0: herbicidal effect rating, ECHORC ([9]; 0.0625 kg/ha)
1.0: herbicidal rating GALAP ([2]; rate 0.0313 kg/ha) | herbicidal rating GALAP ([2]; rate 0.0625 kg/ha) | herbicidal rating ECHCG ([3]; rate 0.0156 kg/ha) | herbicidal rating ECHCG ([3]; rate 0.0313 kg/ha) | herbicidal rating SETVI ([4]; rate 0.0313 kg/ha) | Preemergence herbicidal rating IPOHE [6, 15]
9.0: herbicidal rating ABUTH ([1]; rate 0.0313 kg/ha) | herbicidal rating ABUTH ([1]; rate 0.0625 kg/ha) | herbicidal effect rating, MOOVA ([11]; 0.1250 kg/ha)
3.0: herbicidal rating ABUTH ([1]; rate 0.0156 kg/ha) | herbicidal rating SETVI ([4]; rate 0.0625 kg/ha)
7.0: herbicidal effect rating, ECHORC ([9]; 0.1250 kg/ha) | herbicidal effect rating, ECHORC ([9]; 0.2500 kg/ha) | herbicidal effect rating, CYPIR ([10]; 0.2500 kg/ha) | herbicidal effect rating, MOOVA ([11]; 0.0625 kg/ha)
4.0: herbicidal effect rating, ECHORC ([9]; 0.0313 kg/ha)
6.0: herbicidal effect rating, CYPIR ([10]; 0.1250 kg/ha) | herbicidal effect rating, MOOVA ([11]; 0.0313 kg/ha)
1.5: herbicidal rating ORYSAT ([5]; rate 0.0313 kg/ha)

CCOC(=O)CN1C(=O)C(Cl)SC1=Nc1cc(-n2c(=O)cc(C(F)(F)F)n(C)c2=O)c(F)cc1Cl (centres unmarked) [Compound 126, Ethyl 5-chloro-2-{{2-chloro-5-[3,6-dihydro-3-methyl-2,6-dioxo-4-(trifluoromethyl)-1(2H)-pyrimidinyl]-4-fluorophenyl}imino}-4-oxo-3-thiazolidineacetate]
0.5: herbicidal rating ORYSAT ([5]; rate 0.0313 kg/ha) | herbicidal rating ORYSAT ([5]; rate 0.0625 kg/ha)
8.0: Preemergence herbicidal rating ZEAMX ([8]; rate 0.5000 kg/ha)
2.0: Preemergence herbicidal rating ZEAMX ([8]; rate 0.1250 kg/ha) | herbicidal effect rating, CYPIR ([10]; 0.2500 kg/ha)
1.0: herbicidal rating ORYSAT ([5]; rate 0.1250 kg/ha) | Preemergence herbicidal rating IPOHE ([6]; rate 0.1250 kg/ha) | Preemergence herbicidal rating IPOHE ([6]; rate 0.2500 kg/ha)
4.0: Preemergence herbicidal rating ZEAMX ([8]; rate 0.2500 kg/ha) | herbicidal effect rating, MOOVA ([11]; 0.0625 kg/ha)
0.0: herbicidal rating GALAP ([2]; rate 0.0156 kg/ha) | herbicidal rating GALAP ([2]; rate 0.0313 kg/ha) | herbicidal rating GALAP ([2]; rate 0.0625 kg/ha) | herbicidal rating ECHCG ([3]; rate 0.0156 kg/ha) | herbicidal rating ECHCG ([3]; rate 0.0313 kg/ha) | herbicidal rating ECHCG ([3]; rate 0.0625 kg/ha) | herbicidal rating ECHCG ([3]; rate 0.1250 kg/ha) | herbicidal rating SETVI ([4]; rate 0.0156 kg/ha) | herbicidal rating ORYSAT ([5]; rate 0.0156 kg/ha) | Preemergence herbicidal rating IPOHE ([6]; rate 0.0625 kg/ha) | Preemergence herbicidal rating TRZAWR ([7]; rate 0.0625 kg/ha) | Preemergence herbicidal rating TRZAWR ([7]; rate 0.1250 kg/ha) | Preemergence herbicidal rating TRZAWR ([7]; rate 0.2500 kg/ha) | Preemergence herbicidal rating TRZAWR ([7]; rate 0.5000 kg/ha) | Preemergence herbicidal rating ZEAMX ([8]; rate 0.0625 kg/ha) | herbicidal effect rating, ECHORC ([9]; 0.0313 kg/ha) | herbicidal effect rating, CYPIR ([10]; 0.0313 kg/ha) | herbicidal effect rating, CYPIR ([10]; 0.0625 kg/ha) | herbicidal effect rating, CYPIR ([10]; 0.1250 kg/ha)
3.0: herbicidal rating GALAP ([2]; rate 0.1250 kg/ha) | herbicidal rating SETVI ([4]; rate 0.0313 kg/ha) | herbicidal rating SETVI ([4]; rate 0.0625 kg/ha) | herbicidal effect rating, ECHORC ([9]; 0.0625 kg/ha) | herbicidal effect rating, MOOVA ([11]; 0.0313 kg/ha)
6.0: herbicidal effect rating, ECHORC ([9]; 0.1250 kg/ha) | herbicidal effect rating, MOOVA ([11]; 0.1250 kg/ha)
5.0: herbicidal rating ABUTH ([1]; rate 0.0156 kg/ha)
9.0: herbicidal rating ABUTH ([1]; rate 0.0313 kg/ha) | herbicidal rating ABUTH ([1]; rate 0.0625 kg/ha) | herbicidal rating ABUTH ([1]; rate 0.1250 kg/ha) | herbicidal rating SETVI ([4]; rate 0.1250 kg/ha) | Preemergence herbicidal rating IPOHE ([6]; rate 0.5000 kg/ha)
7.0: herbicidal effect rating, ECHORC ([9]; 0.2500 kg/ha) | herbicidal effect rating, MOOVA ([11]; 0.2500 kg/ha)
